Data from ChEMBL document CHEMBL1201862, “PubChem BioAssay data set” (2004).
Where “and” joins values, the source holds several entries; their conditions need not be identical. Equal entries are not always repeated.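 Five compound concentrations were applied to cells in 96-well plates for 48 hours; endpoints were derived by simple linear interpolation of the resulting dose-response curve. GI50 is the concentration that inhibits growth by half.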 Calls of active or inactive are those of the source. No stated cut-off is given here; in the data, active = GI50 up to about 1.1 µM and inactive = higher.

Columns and labels:
Experiment in all cases: NCI anticancer screen, dose series, 48 h
786-0 = test system: 786-0
A498 = test system: A498
A549 = test system: A549
ACHN = test system: ACHN
BT-549 = test system: BT-549
CAKI-1 = test system: CAKI-1
CCRF-CEM = test system: CCRF-CEM
COLO 205 = test system: COLO 205
DU-145 = test system: DU-145
EKVX = test system: EKVX
HCC 2998 = test system: HCC 2998
HCT-116 = test system: HCT-116
HCT-15 = test system: HCT-15
HL-60 = test system: HL-60
HOP-62 = test system: HOP-62
HOP-92 = test system: HOP-92
HT-29 = test system: HT-29
Hs-578T = test system: Hs-578T
IGROV-1 = test system: IGROV-1
K562 = test system: K562
KM12 = test system: KM12
LOX IMVI = test system: LOX IMVI
M14 = test system: M14
MCF7 = test system: MCF7
MDA-MB-231 = test system: MDA-MB-231
MDA-MB-435 = test system: MDA-MB-435
MDA-N = test system: MDA-N
MOLT-4 = test system: MOLT-4
Malme-3M = test system: Malme-3M
NCI-H226 = test system: NCI-H226
NCI-H23 = test system: NCI-H23
NCI-H460 = test system: NCI-H460
NCI-H522 = test system: NCI-H522
NCI/ADR-RES = test system: NCI/ADR-RES
OVCAR-3 = test system: OVCAR-3
OVCAR-4 = test system: OVCAR-4
OVCAR-5 = test system: OVCAR-5
OVCAR-8 = test system: OVCAR-8
PC-3 = test system: PC-3
RPMI-8226 = test system: RPMI-8226
RXF 393 = test system: RXF 393
SF-268 = test system: SF-268
SF-295 = test system: SF-295
SF-539 = test system: SF-539
SK-MEL-28 = test system: SK-MEL-28
SK-MEL-2 = test system: SK-MEL-2
SK-MEL-5 = test system: SK-MEL-5
SK-OV-3 = test system: SK-OV-3
SN12C = test system: SN12C
SNB-19 = test system: SNB-19
SNB-75 = test system: SNB-75
SR = test system: SR
SW-620 = test system: SW-620
T47D = test system: T47D
TK-10 = test system: TK-10
U-251 = test system: U-251
UACC-257 = test system: UACC-257
UACC-62 = test system: UACC-62
UO-31 = test system: UO-31
DLD-1 = test system: DLD-1
KM-20L2 = test system: KM-20L2
LXFL 529 = test system: LXFL 529
M19-MEL = test system: M19-MEL
SNB-78 = test system: SNB-78
XF498 = test system: XF498

Structure (SMILES): C#CC1(O)C(COP(=O)(O)OCC2OC(n3ccc(NCCCCCCCCCCCCCCCCCC)nc3=O)C(O)C2O)OC(n2ccc(N)nc2=O)C1O (stereo not drawn)
- GI50 (786-0): 4.22 µM (inactive)
- GI50 (A498): 3.6 µM (inactive)
- GI50 (A549): 52.5 nM (active)
- GI50 (ACHN): 175 nM (active)
- GI50 (BT-549): 2.73 µM (inactive)
- GI50 (CAKI-1): 0.161 µM (active)
- GI50 (CCRF-CEM): 0.929 µM (active)
- GI50 (COLO 205): 0.71 µM (active)
- GI50 (DU-145): 0.279 µM (active)
- GI50 (EKVX): 8.24 µM (inactive)
- GI50 (HCC 2998): 703 nM (active)
- GI50 (HCT-116): 245 nM (active)
- GI50 (HCT-15): 0.353 µM
- GI50 (HL-60): 0.298 µM (active)
- GI50 (HOP-62): 4.04 µM (inactive)
- GI50 (HOP-92): 21.2 µM (inactive)
- GI50 (HT-29): 518 nM (active)
- GI50 (Hs-578T): 2.12 µM (inactive)
- GI50 (IGROV-1): 218 nM (active)
- GI50 (K562): 0.278 µM (active)
- GI50 (KM12): 836 nM (active)
- GI50 (LOX IMVI): 48 nM (active)
- GI50 (M14): 254 nM (active)
- GI50 (MCF7): 0.059 µM (active)
- GI50 (MDA-MB-231): 1.03 µM (active)
- GI50 (MDA-MB-435): 0.575 µM (active)
- GI50 (MDA-N): 1.14 µM (inactive)
- GI50 (MOLT-4): 0.418 µM (active)
- GI50 (Malme-3M): 745 nM (active)
- GI50 (NCI-H226): 757 nM (active)
- GI50 (NCI-H23): 3.73 µM (inactive)
- GI50 (NCI-H460): 51.9 nM (active)
- GI50 (NCI-H522): 32 nM (active)
- GI50 (NCI/ADR-RES): 0.556 µM (active)
- GI50 (OVCAR-3): 2.59 µM (inactive)
- GI50 (OVCAR-4): 1.82 µM (inactive)
- GI50 (OVCAR-5): 5.36 µM (inactive)
- GI50 (OVCAR-8): 1.07 µM (active)
- GI50 (PC-3): 1.8 µM (inactive)
- GI50 (RPMI-8226): 142 nM (active)
- GI50 (RXF 393): 4.15 µM (inactive)
- GI50 (SF-268): 1.34 µM (inactive)
- GI50 (SF-295): 0.349 µM (active)
- GI50 (SF-539): 1.16 µM (inactive)
- GI50 (SK-MEL-28): 1.78 µM (inactive)
- GI50 (SK-MEL-2): 0.67 µM (active)
- GI50 (SK-MEL-5): 1.23 µM (inactive)
- GI50 (SK-OV-3): 8.13 µM (inactive)
- GI50 (SN12C): 0.488 µM (active)
- GI50 (SNB-19): 2.71 µM (inactive)
- GI50 (SNB-75): 2.67 µM (inactive)
- GI50 (SR): < 12.4 nM (active)
- GI50 (SW-620): 228 nM (active)
- GI50 (T47D): 1.18 µM (inactive)
- GI50 (TK-10): 401 nM (active)
- GI50 (U-251): 959 nM (active)
- GI50 (UACC-257): 4.05 µM (inactive)
- GI50 (UACC-62): 0.614 µM (active)
- GI50 (UO-31): 71.6 nM (active)

Structure (SMILES): Cc1nn2c(=O)c([N+](=O)[O-])c(/C=C/c3ccc(F)cc3)nc2s1
- GI50 (786-0): 10.9 µM (inactive)
- GI50 (A498): 16.3 µM (inactive)
- GI50 (A549): 9060 nM (inactive)
- GI50 (ACHN): 11500 nM (inactive)
- GI50 (BT-549): 5.12 µM (inactive)
- GI50 (CAKI-1): 8.67 µM (inactive)
- GI50 (CCRF-CEM): 4.47 µM (inactive)
- GI50 (COLO 205): 12.1 µM (inactive)
- GI50 (DU-145): 16.2 µM (inactive)
- GI50 (EKVX): 5.64 µM (inactive)
- GI50 (HCC 2998): 11400 nM (inactive)
- GI50 (HCT-116): 6410 nM (inactive)
- GI50 (HCT-15): 7.5 µM
- GI50 (HL-60): 3.95 µM (inactive)
- GI50 (HOP-62): 15 µM (inactive)
- GI50 (HOP-92): 15.5 µM (inactive)
- GI50 (HT-29): 6520 nM (inactive)
- GI50 (Hs-578T): 11.2 µM (inactive)
- GI50 (IGROV-1): 10500 nM (inactive)
- GI50 (K562): 5.69 µM (inactive)
- GI50 (KM12): 7240 nM (inactive)
- GI50 (LOX IMVI): 2790 nM (inactive)
- GI50 (M14): 11300 nM (inactive)
- GI50 (MCF7): 3.4 µM (inactive)
- GI50 (MDA-MB-231): 13.9 µM (inactive)
- GI50 (MDA-MB-435): 4.33 µM (inactive)
- GI50 (MDA-N): 5.96 µM (inactive)
- GI50 (MOLT-4): 10.1 µM (inactive)
- GI50 (Malme-3M): 11600 nM (inactive)
- GI50 (NCI-H226): 11400 nM (inactive)
- GI50 (NCI-H23): 15.2 µM (inactive)
- GI50 (NCI-H460): 8340 nM (inactive)
- GI50 (NCI-H522): 8490 nM (inactive)
- GI50 (NCI/ADR-RES): 9.77 µM (inactive)
- GI50 (OVCAR-3): 4.28 µM (inactive)
- GI50 (OVCAR-4): 11 µM (inactive)
- GI50 (OVCAR-5): 9.89 µM (inactive)
- GI50 (OVCAR-8): 6.07 µM (inactive)
- GI50 (PC-3): 9.42 µM (inactive)
- GI50 (RPMI-8226): 3510 nM (inactive)
- GI50 (RXF 393): 4.42 µM (inactive)
- GI50 (SF-268): 8.87 µM (inactive)
- GI50 (SF-295): 11.8 µM (inactive)
- GI50 (SF-539): 8.55 µM (inactive)
- GI50 (SK-MEL-28): 12.9 µM (inactive)
- GI50 (SK-MEL-2): 9.91 µM (inactive)
- GI50 (SK-MEL-5): 7.94 µM (inactive)
- GI50 (SK-OV-3): 12.6 µM (inactive)
- GI50 (SN12C): 11.6 µM (inactive)
- GI50 (SNB-19): 10.8 µM (inactive)
- GI50 (SNB-75): 9.27 µM (inactive)
- GI50 (SR): 3800 nM (inactive)
- GI50 (SW-620): 11500 nM (inactive)
- GI50 (T47D): 4.03 µM (inactive)
- GI50 (TK-10): 14100 nM (inactive)
- GI50 (U-251): 4840 nM (inactive)
- GI50 (UACC-257): 10.9 µM (inactive)
- GI50 (UACC-62): 11.3 µM (inactive)
- GI50 (UO-31): 8750 nM (inactive)

Structure (SMILES): Cc1ccc(SSCC(O)C(O)CSSc2ccc(C)cc2)cc1 (stereo not drawn)
- GI50 (A498): 4.51 µM (inactive)
- GI50 (A549): 10.6 µM (inactive) and 10.9 µM (inactive)
- GI50 (ACHN): 11.2 µM (inactive) and 15.7 µM (inactive)
- GI50 (CCRF-CEM): 1.14 µM (inactive)
- GI50 (DLD-1): 15 µM (inactive) and 14.1 µM (inactive)
- GI50 (EKVX): 14.1 µM (inactive) and 18.1 µM (inactive)
- GI50 (HCC 2998): 15 µM (inactive) and 14.2 µM (inactive)
- GI50 (HCT-116): 12.1 µM (inactive) and 7.28 µM (inactive)
- GI50 (HCT-15): 14.1 µM and 13.1 µM
- GI50 (HOP-92): 17 µM (inactive) and 11.9 µM (inactive)
- GI50 (HT-29): 13.3 µM (inactive) and 18.5 µM (inactive)
- GI50 (IGROV-1): 2.99 µM (inactive) and 2.14 µM (inactive)
- GI50 (KM-20L2): 13.1 µM (inactive) and 11.1 µM (inactive)
- GI50 (KM12): 9.48 µM (inactive) and 11.1 µM (inactive)
- GI50 (LOX IMVI): 1.3 µM (inactive) and 1.89 µM (inactive)
- GI50 (LXFL 529): 10.6 µM (inactive) and 6.01 µM (inactive)
- GI50 (M14): 7.29 µM (inactive) and 5.58 µM (inactive)
- GI50 (M19-MEL): 16.5 µM (inactive) and 11.6 µM (inactive)
- GI50 (Malme-3M): 19 µM (inactive) and 15.3 µM (inactive)
- GI50 (NCI-H226): 15.2 µM (inactive) and 15.1 µM (inactive)
- GI50 (NCI-H23): 5.94 µM (inactive) and 11.3 µM (inactive)
- GI50 (NCI-H460): 17.5 µM (inactive) and 18.1 µM (inactive)
- GI50 (NCI-H522): 1.82 µM (inactive) and 1.76 µM (inactive)
- GI50 (OVCAR-4): 13.4 µM (inactive) and 14.3 µM (inactive)
- GI50 (OVCAR-5): 16.6 µM (inactive) and 22.8 µM (inactive)
- GI50 (RPMI-8226): 3.66 µM (inactive) and 3.26 µM (inactive)
- GI50 (RXF 393): 3.92 µM (inactive) and 4.15 µM (inactive)
- GI50 (SF-539): 3.42 µM (inactive) and 3.02 µM (inactive)
- GI50 (SK-MEL-28): 13.9 µM (inactive) and 14.9 µM (inactive)
- GI50 (SK-MEL-2): 8.18 µM (inactive)
- GI50 (SK-MEL-5): 7.31 µM (inactive) and 12.6 µM (inactive)
- GI50 (SNB-19): 15.1 µM (inactive) and 14.6 µM (inactive)
- GI50 (SNB-78): 13.7 µM (inactive)
- GI50 (SR): 3.55 µM (inactive) and 3.29 µM (inactive)
- GI50 (SW-620): 7.55 µM (inactive) and 14.2 µM (inactive)
- GI50 (TK-10): 15.6 µM (inactive) and 13.2 µM (inactive)
- GI50 (U-251): 2.03 µM (inactive) and 2.23 µM (inactive)
- GI50 (UACC-257): 15.6 µM (inactive) and 14.4 µM (inactive)
- GI50 (UO-31): 4.08 µM (inactive) and 4.26 µM (inactive)
- GI50 (XF498): 17.2 µM (inactive) and 13.7 µM (inactive)
